# Test system: 8XTBD luciferase reporter
# Test: YAP Reporter Assay
# Assay type: cell-based
# Settings: Homo sapiens, HEK-293T; HEK293T cells stably transfected with 8XTBD luciferase reporter and pRLTK; 24-hr incubation; starting from 3 μM, 1:3 dilution, 10 points; read-out: Firefly Luciferase IC50
# Outline: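 HEK293T cells stably carrying the 8XTBD firefly luciferase reporter and TK-renilla control received compounds at a 10-point, 1:3 series from 3 μM (final) in quadruplicate. After 24 h at 37° C, Dual-Glo luminescence was read. IC50 and maximal inhibition were reported separately for firefly and renilla signals.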
row,Structure (SMILES),IC50 [µM]
1,"Cn1ccc(-c2cc(S(C)(=O)=O)ccc2NC2CCCCC2)n1 [Compound 8, N-cyclohexyl-2-(1-methyl-1H-pyrazol-3-yl)-4-(methylsulfonyl)aniline]",0.1 to 1
2,"CNS(=O)(=O)c1ccc(Nc2ccc(SC(F)(F)F)cc2)c(-c2cn(C)cn2)c1 [Compound 144, N-methyl-3-(1-methylimidazol-4-yl)-4-[4-(trifluoromethylsulfanyl)anilino] benzenesulfonamide]",≤ 0.1
3,"CNS(=O)(=O)c1ccc(NC2CCCCC2)c(-c2nnn(C)n2)c1 [Compound 22, 4-(cyclohexylamino)-N-methyl-3-(2-methyl-2H-tetrazol-5-yl)benzenesulfonamide]",≤ 0.1
4,"CNS(=O)(=O)c1ccc(Nc2ccc(Cl)cc2)c(-c2cn(C)cn2)c1 [Compound 139, 4-(4-chloroanilino)-N-methyl-3-(1-methylimidazol-4-yl)benzenesulfonamide]",≤ 0.1
5,"CNS(=O)(=O)c1ccc(NC2CCCCC2)c(-c2nnn(C3CN(c4ccccc4)C3)n2)c1 [Compound 51, 4-(cyclohexylamino)-N-methyl-3-(2-(1-phenylazetidin-3-yl)-2H-tetrazol-5-yl)benzenesulfonamide]",> 3
6,"CNS(=O)(=O)c1ccc(Nc2cccc(Cl)c2)c(-c2cn(C)cn2)c1 [Compound 143, 4-(3-Chloroanilino)-N-methyl-3-(1-methylimidazol-4-yl)benzenesulfonamide]",≤ 0.1

# Continued, values first:
row,IC50 [µM],Structure (SMILES)
1,≤ 0.1,"CNS(=O)(=O)c1ccc(Nc2ccc(OC(F)(F)F)cc2)c(-c2nnn(C)n2)c1 [Compound 103, N-methyl-3-(2-methyl-2H-tetrazol-5-yl)-4-((4-(trifluoromethoxy)phenyl)amino)benzenesulfonamide]"
2,0.1 to 1,"CNS(=O)(=O)c1ccc(NC2CCCCC2)c(-c2ccncn2)c1 [Compound 69, 4-(cyclohexylamino)-N-methyl-3-(pyrimidin-4-yl)benzenesulfonamide]"
3,≤ 0.1,"CNS(=O)(=O)c1ccc(NC2CCCCC2)c(-c2noc(C)n2)c1 [Compound 48, 4-(cyclohexylamino)-N-methyl-3-(5-methyl-1,2,4-oxadiazol-3-yl)benzene sulfonamide]"
